{
  "source": "paper PMC3411647",
  "about": "(PLoS ONE, 2012)",
  "biological_target": "T1, H3R-EGFP (Homo sapiens, UniProt Q9Y5N1)",
  "T1 construct": "expressed in transfected cells",
  "T1 sequence (Q9Y5N1 whole entry)": "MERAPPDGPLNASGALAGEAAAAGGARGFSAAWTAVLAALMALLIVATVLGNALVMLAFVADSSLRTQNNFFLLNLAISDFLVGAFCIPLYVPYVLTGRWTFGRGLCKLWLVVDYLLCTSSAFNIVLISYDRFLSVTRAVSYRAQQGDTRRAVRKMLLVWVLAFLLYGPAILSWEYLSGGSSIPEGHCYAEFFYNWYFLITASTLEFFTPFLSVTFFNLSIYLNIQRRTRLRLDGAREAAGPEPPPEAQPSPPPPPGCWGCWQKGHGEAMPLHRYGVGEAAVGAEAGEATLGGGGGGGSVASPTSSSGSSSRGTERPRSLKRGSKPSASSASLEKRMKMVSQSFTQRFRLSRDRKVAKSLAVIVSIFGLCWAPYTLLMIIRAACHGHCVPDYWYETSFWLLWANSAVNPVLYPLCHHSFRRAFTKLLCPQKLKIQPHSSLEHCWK",
  "assay": "Recycling of internalized H3R-EGFP to the cell surface, confocal microscopy",
  "type": "cell-based",
  "conditions": "20 µM ZEL-H16 or 500 µM histamine for 30 min, cycloheximide 100 µg/ml",
  "experimental": "Figure 6 Localization of internalized H3R-EGFP stably expressed in HEK-293 cells and recycling of internalized H3R to the cell surface. […] All pictures shown are representative of at least three independent experiments.\nHEK-293 cells stably expressing H3R-EGFP were seeded in covered glass-bottom 6-well plates. […] After fixing the cells with 4% paraformaldehyde for 10 min, cells were mounted in mounting reagent (DTT/PBS/glycerol). Confocal images were taken on a Zeiss LSM 510 microscope with an attached Axiovert 200 microscope and LSM5 computer system. Images were collected using QED camera software and processed with Adobe Photoshop.",
  "data": [
    {"smiles": "c1ccc2c(c1)c(CCCN1CCCCC1)cn2CCCN1CCCCC1", "note": "[ZEL-H16]", "values": [
      {"measurement": "time for internalized H3R to recycle to the cell surface after agonist removal", "result": "≤ 3", "unit": "h"}
    ]}
  ]
}
